According to the NIST ThermoML archive (doi:10.1021/je060271a):

Settings: 303.14 K, Liquid, Vibrating tube method

CCCCCCC(=O)OCC(COC(=O)CCCCCC)(COC(=O)CCCCCC)COC(=O)CCCCCC [pentaerythritol tetraheptanoate]
Settings	mass density [kg/m3]
3038.7 kPa	972.7
3058.7 kPa	972.6
3082.4 kPa	972.7
3102.9 kPa	972.7
3122.8 kPa	972.6
3144 kPa	972.7
3168.8 kPa	972.6
3190.1 kPa	972.7
3211.6 kPa	972.8
3237.6 kPa	972.8
3258.9 kPa	972.7
3281.4 kPa	972.8
3307.8 kPa	972.7
3330.1 kPa	972.8
3352.7 kPa	972.9
3380 kPa	972.9
3403.4 kPa	972.9
3426.8 kPa	973
3450.4 kPa	972.9
3479.2 kPa	972.9
3502.9 kPa	972.9
3527.3 kPa	972.9
3557 kPa	973
3581.9 kPa	973.1
3607.2 kPa	972.9
3632.9 kPa	973
3663.7 kPa	973
3689.2 kPa	973.1
3719.9 kPa	973.1
3746.2 kPa	973
3772.9 kPa	973.1
3800.2 kPa	973.1
3832.6 kPa	973.2
3860.2 kPa	973.1
3888.8 kPa	973.1
3922.9 kPa	973.2
3951.5 kPa	973.3
3980.6 kPa	973.3
4009.8 kPa	973.2
4044.8 kPa	973.2
4074.3 kPa	973.3
4103.9 kPa	973.4
4139.9 kPa	973.4
4170.1 kPa	973.4
4200.4 kPa	973.3
4233.1 kPa	973.3
4239.8 kPa	973.3
4241.6 kPa	973.4
4243.3 kPa	973.4
4244.7 kPa	973.5
4245.2 kPa	973.4
4245.9 kPa	973.5
4246.6 kPa	973.4
4246.8 kPa	973.5
4247.1 kPa	973.4
4247.3 kPa	973.4
4247.5 kPa	973.5
4249.4 kPa	973.4
4257.2 kPa	973.5
4271.5 kPa	973.3
4283.5 kPa	973.5
4296.1 kPa	973.4
4311.4 kPa	973.5
4322.4 kPa	973.6
4342.7 kPa	973.4
4361.4 kPa	973.4
4372.3 kPa	973.5
4382.1 kPa	973.5
4393.9 kPa	973.6
4403.8 kPa	973.4
4413.6 kPa	973.4
4425.4 kPa	973.5
4435.5 kPa	973.5
4445.2 kPa	973.5
4455.2 kPa	973.5
4467.5 kPa	973.6
4476.8 kPa	973.6
4487.4 kPa	973.6
4499.3 kPa	973.5
4509.6 kPa	973.5
4519.6 kPa	973.6
4529.8 kPa	973.5
4541.2 kPa	973.6
4551.3 kPa	973.5
4563.6 kPa	973.6
4573.1 kPa	973.6
4582.4 kPa	973.6
4592.3 kPa	973.7
4605.6 kPa	973.6
4631.8 kPa	973.7
4653.8 kPa	973.6
4676.1 kPa	973.5
4703.4 kPa	973.7
4724.4 kPa	973.8
4743.1 kPa	973.7
4764.9 kPa	973.7
4783.4 kPa	973.6
4801.9 kPa	973.8
4820.6 kPa	973.8
4843.5 kPa	973.7
4862.8 kPa	973.7
4882.7 kPa	973.8
4901.8 kPa	973.6
4925 kPa	973.8
4944 kPa	973.8
4964.4 kPa	973.9
4984.3 kPa	974
5008.5 kPa	973.8
5029 kPa	973.9
5050.1 kPa	974
5075 kPa	973.9
5095.7 kPa	973.9
5116.9 kPa	974.1
5138.3 kPa	974
5164.1 kPa	974
5185.5 kPa	974.1
5207.3 kPa	974
5229.7 kPa	974.1
5256.1 kPa	974.1
5277.9 kPa	974
5304.9 kPa	974
5328.1 kPa	974.1
5350.7 kPa	974.1
5374.3 kPa	974.1
5402.1 kPa	974.2
5425.6 kPa	974.1
5450.7 kPa	974.3
5475.8 kPa	974.1
5504.5 kPa	974.2
5528.9 kPa	974.2
5554 kPa	974.3
5583.9 kPa	974.3
5609.1 kPa	974.3
5634.4 kPa	974.3
5665 kPa	974.3
5690.9 kPa	974.2
5717.2 kPa	974.3
5749 kPa	974.4
5776.5 kPa	974.3
5804.6 kPa	974.3
5832 kPa	974.4
5860 kPa	974.4
5888.5 kPa	974.4
5922.7 kPa	974.5
5951.6 kPa	974.3
5980.6 kPa	974.5
6015.7 kPa	974.6
6045.3 kPa	974.5
6075.7 kPa	974.4
6106.1 kPa	974.5
6142.6 kPa	974.5
6174.1 kPa	974.6
6207 kPa	974.5
6238.7 kPa	974.6
6270.8 kPa	974.6
6309.5 kPa	974.6
6342.4 kPa	974.7
6375.9 kPa	974.7
6416.1 kPa	974.8
6447.8 kPa	974.8
6476.3 kPa	974.7
6510.3 kPa	974.7
6539.5 kPa	974.8
6568.7 kPa	974.8
6598.1 kPa	974.9
6633.7 kPa	974.8
6664.4 kPa	974.9
6695.2 kPa	974.8
6725.8 kPa	974.8
6762.4 kPa	974.9
6793.3 kPa	975
6825.6 kPa	975
6857.2 kPa	975
6895.7 kPa	975
6928 kPa	975
6961.5 kPa	975
7001.6 kPa	975.1
7035.6 kPa	975.2
7070.4 kPa	975.2
7104.5 kPa	975.1
7139.2 kPa	975.2
7181.2 kPa	975.2
7216.8 kPa	975.2
7253.9 kPa	975.3
7291.4 kPa	975.3
7336.6 kPa	975.2
7375.1 kPa	975.4
7414.5 kPa	975.3
7451.6 kPa	975.3
7469.5 kPa	975.4
7494.9 kPa	975.4
7522.2 kPa	975.3
7549.5 kPa	975.4
7582.3 kPa	975.4
7609.7 kPa	975.5
7637.3 kPa	975.6
7671.1 kPa	975.5
7698.9 kPa	975.6
7728.1 kPa	975.5
7757.4 kPa	975.5
7793.5 kPa	975.6
7823.2 kPa	975.6
7858.2 kPa	975.7
7882.7 kPa	975.7
7904.3 kPa	975.7
7925.9 kPa	975.6
7946.9 kPa	975.6
7972.8 kPa	975.7
7994 kPa	975.6
8016.3 kPa	975.8
8042.7 kPa	975.7
8064.3 kPa	975.8
8087 kPa	975.8
8113.3 kPa	975.8
8135.7 kPa	975.8
8158.3 kPa	975.8
8181.6 kPa	975.8
8209 kPa	975.8
8232.1 kPa	975.9
8255.4 kPa	976
8283 kPa	975.9
8305.8 kPa	975.8
8328.7 kPa	975.9
